Data published in patent publication EP0329904A1, “Use of quinolizine and quinolizinone derivatives in the manufacture of medicaments for the treatment of anxiety” (MERRELL DOW PHARMACEUTICALS INC., priority 1988, dated 1989).
Where a name gives a salt, the structure may show the parent alone.

Test system: Von Bezold-Jarisch Reflex induced by 5-HT
Test: Von Bezold-Jarisch Reflex induced by 5-HT injected intravenously
Format: in vivo
Settings: rat
Text: The activity of these compounds against 5-HT can be assessed in vivo by measurement of the effect of the compound on the Von Bezold-Jarisch Reflex induced by 5-HT injected intravenously into the rat (see Paintal A.S., Physiol. Rev. 53, 159-227, 1973; J.R. Fozard, Naunyn-Schmiedeberg's Arch. Pharmacol., 326, 1984, 36-44). The transient cardiac slowing arises from an increased afferent vagus activity arising from stimulation by 5-HT of sensory afferent fibers in and around the heart.

[1] = doses of 0.01-0.1 mg/kg given intravenously
[2] = doses of 0.25-1 mg/kg given orally

With `Cc1cc(C)cc(C(=O)OC2CC3CC4CC(C2)N3CC4=O)c1` (stereo not drawn) [endo-8-(3,5-dimethylbenzoyloxy)hexahydro-2,6-methano-2H-quinolizin-3(4H)-one] the “suppression of the Von Bezold-Jarisch Reflex response” value (“suppression” below) [1] was “suppressed the response dose-dependently” and the “suppression” value [2] was “suppressed the response dose-dependently”.

In the case of `O=C(OC1CC2CC3CC(C1)N2CC3=O)c1c[nH]c2ccccc12` (stereo not drawn) [endo-hexahydro-8-(3-indolylcarbonyloxy)-2,6-methano-2H-quinolizin-3(4H)one hydrochloride], the “suppression” value [1] is reported as “suppressed the response dose-dependently” and the “suppression” value [2] is reported as “suppressed the response dose-dependently”.
